Experimental data reported in patent publication US10654917B2, “Antibody molecules and peptide delivery systems for use in alzheimer's disease and related disorders” (TECHNOPHAGE, INVESTIGAÇĀO E DESENVOLVIMENTO EM …, priority 2015, dated 2020).
Where two headings read alike, the source gives them in different places. Residues, ends and D or L forms follow the SMILES beside them. *: point of attachment. X1 = Cc1nn(CCN(CCN)CCCC(=O)*)c(C)c1CC(=O)O

Experiments:
[1] = Partition coefficient (log Po/w) of radiopeptides; format: physicochemical
Source text: Table 7 lists each peptide's name, isoelectric point (PI), charge (number of positive residues), calculated mass (in Da), and ion found; as well as the name, calculated mass, and found ion for the corresponding conjugate; and also retention times in HPLC and the partition coefficient (log Po/w). These values allowed the determination of the hydrophilic nature of peptides, where pepH1 and pepH4 were identified as the most hydrophilic peptides.

[2] = Biodistribution of technetium-labelled peptides; format: in vivo, CD1 mice; conditions: iv, total radioactivity
Outline: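 CD1 mice received technetium-labelled peptide (8.5×10^−5 M final labelling concentration, in PBS) by tail-vein iv injection; in a repeat study dose was raised one hundred fold. Organs were dissected, washed, weighed and counted at 5 and 60 min, or 2 and 60 min in the repeat, as % injected activity or per gram tissue.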

CC[C@H](C)[C@H](NC(=O)CNC(=O)[C@H](C)NC(=O)CCCN(CCN)CCn1nc(C)c(CC(=O)O)c1C)C(=O)N[C@@H](CC(C)C)C(=O)N[C@@H](CCCCN)C(=O)N[C@@H](CCCNC(=N)N)C(=O)N[C@@H](Cc1c[nH]c2ccccc12)C(=O)O [^99mTc(CO)3-Pz^1-pepH3, metal not drawn] (X1-AGILKRW-OH; C-terminus assumed)
log Po/w of radiopeptides [1]: 0.11 ± 0.06 | tissue uptake at 2 min ([2]; CD1, blood, 140 ug/mouse, 140 μg/mouse, read-out: injected activity in Blood): 8.6 ± 0.9 %ID/g | tissue uptake at 1 h ([2]; CD1, blood, 140 ug/mouse, 140 μg/mouse, 1 hour, read-out: injected activity in Blood): 0.43 ± 0.04 %ID/g | tissue uptake at 2 min ([2]; CD1, bone, 140 ug/mouse, 140 μg/mouse, read-out: injected activity in Bone): 1.89 ± 0.04 %ID/g | tissue uptake at 1 h ([2]; CD1, bone, 140 ug/mouse, 140 μg/mouse, 1 hour, read-out: injected activity in Bone): 0.19 ± 0.01 %ID/g | tissue uptake at 2 min ([2]; CD1, brain, 140 ug/mouse, 140 μg/mouse, read-out: injected activity in Brain): 0.31 ± 0.07 %ID/g | tissue uptake at 1 h ([2]; CD1, brain, 140 ug/mouse, 140 μg/mouse, 1 hour, read-out: injected activity in Brain): 0.03 ± 0.01 %ID/g | tissue uptake at 2 min ([2]; CD1, heart, 140 ug/mouse, 140 μg/mouse, read-out: injected activity in Heart): 2.2 ± 0.3 %ID/g | tissue uptake at 1 h ([2]; CD1, heart, 140 ug/mouse, 140 μg/mouse, 1 hour, read-out: injected activity in Heart): 0.14 ± 0.01 %ID/g | dose excreted at 1 h ([2]; CD1, in vivo, 140 ug/mouse, 140 μg/mouse, 1 hour, read-out: Excretion): 36 ± 11.2% | tissue uptake at 2 min ([2]; CD1, intestine, 140 ug/mouse, 140 μg/mouse, read-out: injected activity in Intestine): 1.4 ± 0.2 %ID/g | tissue uptake at 1 h ([2]; CD1, intestine, 140 ug/mouse, 140 μg/mouse, 1 hour, read-out: injected activity in Intestine): 23 ± 7.9 %ID/g | tissue uptake at 2 min ([2]; CD1, kidney, 140 ug/mouse, 140 μg/mouse, read-out: injected activity in Kidney): 23.1 ± 3.4 %ID/g | tissue uptake at 1 h ([2]; CD1, kidney, 140 ug/mouse, 140 μg/mouse, 1 hour, read-out: injected activity in Kidney): 3.5 ± 0.7 %ID/g | tissue uptake at 2 min ([2]; CD1, liver, 140 ug/mouse, 140 μg/mouse, read-out: injected activity in Liver): 18.8 ± 6.1 %ID/g | tissue uptake at 1 h ([2]; CD1, liver, 140 ug/mouse, 140 μg/mouse, 1 hour, read-out: injected activity in Liver): 2.3 ± 0.2 %ID/g | tissue uptake at 2 min ([2]; CD1, lung, 140 ug/mouse, 140 μg/mouse, read-out: injected activity in Lung): 4.48 ± 0.01 %ID/g | tissue uptake at 1 h ([2]; CD1, lung, 140 ug/mouse, 140 μg/mouse, 1 hour, read-out: injected activity in Lung): 0.31 ± 0.03 %ID/g | tissue uptake at 2 min ([2]; CD1, muscle, 140 ug/mouse, 140 μg/mouse, read-out: injected activity in Muscle): 1.4 ± 0.2 %ID/g | tissue uptake at 1 h ([2]; CD1, muscle, 140 ug/mouse, 140 μg/mouse, 1 hour, read-out: injected activity in Muscle): 0.2 ± 0.1 %ID/g | tissue uptake at 2 min ([2]; CD1, spleen, 140 ug/mouse, 140 μg/mouse, read-out: injected activity in Spleen): 1.6 ± 0.4 %ID/g | tissue uptake at 1 h ([2]; CD1, spleen, 140 ug/mouse, 140 μg/mouse, 1 hour, read-out: injected activity in Spleen): 0.81 ± 0.01 %ID/g | tissue uptake at 2 min ([2]; CD1, stomach, 140 ug/mouse, 140 μg/mouse, read-out: injected activity in Stomach): 1.1 ± 0.2 %ID/g | tissue uptake at 1 h ([2]; CD1, stomach, 140 ug/mouse, 140 μg/mouse, 1 hour, read-out: injected activity in Stomach): 5.2 ± 0.7 %ID/g | tissue uptake at 5 min ([2]; mouse, blood, 10 ug, CD1 mice, 5 min, 10 μg, read-out: injected activity in Blood): 4.7 ± 0.6 %ID/g | tissue uptake at 1 h ([2]; mouse, blood, 10 ug, CD1 mice, 1 hour, 10 μg, read-out: injected activity in Blood): 1.2 ± 0.4 %ID/g | tissue uptake at 5 min ([2]; mouse, bone, 10 ug, CD1 mice, 5 min, 10 μg, read-out: injected activity in Bone): 1.2 ± 0.1 %ID/g | tissue uptake at 1 h ([2]; mouse, bone, 10 ug, CD1 mice, 1 hour, 10 μg, read-out: injected activity in Bone): 0.26 ± 0.05 %ID/g | tissue uptake at 5 min ([2]; mouse, brain, 10 ug, CD1 mice, 5 min, 10 μg, read-out: injected activity in Brain): 0.15 ± 0.02 %ID/g | tissue uptake at 1 h ([2]; mouse, brain, 10 ug, CD1 mice, 1 hour, 10 μg, read-out: injected activity in Brain): 0.04 ± 0.01 %ID/g | tissue uptake at 5 min ([2]; mouse, heart, 10 ug, CD1 mice, 5 min, 10 μg, read-out: injected activity in Heart): 1.5 ± 0.5 %ID/g | tissue uptake at 1 h ([2]; mouse, heart, 10 ug, CD1 mice, 1 hour, 10 μg, read-out: injected activity in Heart): 0.35 ± 0.01 %ID/g | percent of injected dose excreted at 5 min ([2]; mouse, in vivo, 10 ug, CD1 mice, 5 min, 10 μg, read-out: Excretion): 19.6 ± 0.3 %ID | percent of injected dose excreted at 1 h ([2]; mouse, in vivo, 10 ug, CD1 mice, 1 hour, 10 μg, read-out: Excretion): 10.5 ± 8.6 %ID | tissue uptake at 5 min ([2]; mouse, intestine, 10 ug, CD1 mice, 5 min, 10 μg, read-out: injected activity in Intestine): 3 ± 0.3 %ID/g | tissue uptake at 1 h ([2]; mouse, intestine, 10 ug, CD1 mice, 1 hour, 10 μg, read-out: injected activity in Intestine): 7.4 ± 0.4 %ID/g | tissue uptake at 5 min ([2]; mouse, kidney, 10 ug, CD1 mice, 5 min, 10 μg, read-out: injected activity in Kidney): 11.9 ± 3.8 %ID/g | tissue uptake at 1 h ([2]; mouse, kidney, 10 ug, CD1 mice, 1 hour, 10 μg, read-out: injected activity in Kidney): 0.4 ± 2 %ID/g | tissue uptake at 5 min ([2]; mouse, liver, 10 ug, CD1 mice, 5 min, 10 μg, read-out: injected activity in Liver): 7.6 ± 0.1 %ID/g | tissue uptake at 1 h ([2]; mouse, liver, 10 ug, CD1 mice, 1 hour, 10 μg, read-out: injected activity in Liver): 2.3 ± 0.2 %ID/g | tissue uptake at 5 min ([2]; mouse, lung, 10 ug, CD1 mice, 5 min, 10 μg, read-out: injected activity in Lung): 3.7 ± 0.2 %ID/g | tissue uptake at 1 h ([2]; mouse, lung, 10 ug, CD1 mice, 1 hour, 10 μg, read-out: injected activity in Lung): 1 ± 0.2 %ID/g | tissue uptake at 5 min ([2]; mouse, muscle, 10 ug, CD1 mice, 5 min, 10 μg, read-out: injected activity in Muscle): 1 ± 0.2 %ID/g | tissue uptake at 1 h ([2]; mouse, muscle, 10 ug, CD1 mice, 1 hour, 10 μg, read-out: injected activity in Muscle): 0.3 ± 0.1 %ID/g | tissue uptake at 5 min ([2]; mouse, pancreas, 10 ug, CD1 mice, 5 min, 10 μg, read-out: injected activity in Pancreas): 1.1 ± 0.1 %ID/g | tissue uptake at 1 h ([2]; mouse, pancreas, 10 ug, CD1 mice, 1 hour, 10 μg, read-out: injected activity in Pancreas): 0.5 ± 0.2 %ID/g | tissue uptake at 5 min ([2]; mouse, spleen, 10 ug, CD1 mice, 5 min, 10 μg, read-out: injected activity in Spleen): 1.5 ± 0.2 %ID/g | tissue uptake at 1 h ([2]; mouse, spleen, 10 ug, CD1 mice, 1 hour, 10 μg, read-out: injected activity in Spleen): 0.81 ± 0.01 %ID/g | tissue uptake at 5 min ([2]; mouse, stomach, 10 ug, CD1 mice, 5 min, 10 μg, read-out: injected activity in Stomach): 0.17 ± 0.02 %ID/g | tissue uptake at 1 h ([2]; mouse, stomach, 10 ug, CD1 mice, 1 hour, 10 μg, read-out: injected activity in Stomach): 0.4 ± 0.2 %ID/g
